In patent US20210186888A1, “NANOPARTICLE COMPOSITIONS FOR CANCER TREATMENT” (priority 2017, published 2021):

What was measured:
Format in all cases: cell-based
BT-549 = test: MTT assay
Experimental: (§1) MTT assay: Cells were grown to log phase in their respective media, washed in PBS, trypsinized, and plated on 96-well plates at a density of 3,000-6,000 cells per well in 200 μL of complete media. Cells were allowed to recover for 18 hours and were then exposed to AgNPs for 48 or 72 hours. For NAC studies, cells were exposed to 4 mM NAC (Sigma Aldrich) diluted in growth media for 6 h prior to AgNP treatment. Media containing NAC was removed and replaced with media containing AgNPs. For induction of EMT, cells were exposed to 10 ng/ml TGF-β1 (R&D Systems) for 6 days at 37° C., prior to AgNP treatment. Media containing AgNPs were replaced with 200 μL of media containing 0.5 mg/mL MTT and incubated for 1 hour at 37° C. Medium was removed, and cells were lysed in 200 μL of DMSO and read using a Molecular Devices Emax Precision Microplate Reader at 560 nm and corrected for background at 650 nm.
ZEB1 Knockdown: BT549 cells were plated in 60mm tissue culture plates and allowed to grow to 80-90% confluence. Each plate was then transfected with a non-coding control shRNA plasmid, or a plasmid containing shRNA targeted against ZEB1. Knockdown constructs used in this study were obtained from Sigma Aldrich (Mission shRNA TRCN0000369267 and TRCN0000369266). Each plate was transfected using 1 μg plasmid in conjunction with Lipofectamine 2000 (Invitrogen) according to the manufacturer's protocol. The following day cells were reseeded and were maintained in medium containing puromycin (2 μg/ml). ZEB1 expression levels were verified using immunoblot prior to experimentation.
TNBC cell lines which can be further classified as the CLBC (MDA-MB-231, BT-549, SUM-159) or basal (BT-20, MDA-MB-468) molecular subtypes were tested, as were luminal A (MCF-7), HER-2+ (SKBR3), and non-cancerous breast (MCF-10A, 184B5, iMEC) cell lines (FIG. 2A). […] As with the 48 h treatment, the CLBC cell lines were the most sensitive to AgNPs following a 72 h treatment.
(§2) IC50 calculations were performed using the prism software. IC50 in Table II are shown in total NP (AgNP) concentration and silver (Ag) content. At least 3 independent experiments were conducted for each cell line.
BT549 claudin-low breast cancer cells were treated with either AgNPs or KRIBB11, an HSF1 inhibitor, independently and in combination. The treated cells were then assessed for cell viability by MTT assay (FIG. 17A).
BT549 claudin-low breast cancer cells were treated with either AgNPs or 17-DMAG, an HSP90 inhibitor, independently and in combination. Treated cells were then assessed for cell viability by MTT assay (FIG. 19A). […] Combination treatment of both AgNPs and […]

MDA-MB-231 = test: MTT assay
Experimental: as §1
As with the 48 h treatment, the CLBC cell lines were the most sensitive to AgNPs following a 72 h treatment.
as §2

[1] = tested on: PERK arm of the UPR in MDA-MB-231 cells; test: Immunoblotting of PERK arm activation (p-eIF2α); conditions: 4 h
Experimental: MDA-MB-231 cells were treated with 1 μM of the ER stress inducer, thapsigargin, 25 nM of the PERK inhibitor (PERKi), […], or the combination of thapsigargin and GSK2606414 for 4 h to verify the efficacy of the PERKi, GSK2606414. […] To further evaluate the role of ER stress in AgNP-induced cytotoxicity, MDA-MB-231 cells were treated with increasing doses of AgNPs alone or in combination with the PERKi, GSK2606414, for 48 h to determine if PERK inhibition provides protection against AgNP-induced cytotoxicity.

BT-20 = test: MTT assay
Experimental: as §1
TNBC cell lines which can be further classified as the CLBC (MDA-MB-231, BT-549, SUM-159) or basal (BT-20, MDA-MB-468) molecular subtypes were tested, as were luminal A (MCF-7), HER-2+ (SKBR3), and non-cancerous breast (MCF-10A, 184B5, iMEC) cell lines (FIG. 2A). […]
BT20 basal-like breast cancer cells were treated with either AgNPs or KRIBB11, an HSF1 inhibitor, independently and in combination. Treated cells were then assessed for cell viability by MTT assay (FIG. 18A).

[2] = tested on: AgNP sensitive cell lines; test: ROS detection with H2DCF-DA; conditions: 24 h 10 mM NAC

`CO[C@H]1/C=C\C=C(/C)C(=O)NC2=CC(=O)C(NCCN(C)C)=C(C[C@@H](C)C[C@H](OC)[C@H](O)[C@@H](C)/C=C(\C)[C@@H]1OC(N)=O)C2=O` [17-DMAG] was tested, and the “sensitivity to AgNPs versus HSP90 inhibition (dose reduction index)” value (BT-549; BT549, single agents) was “equally sensitive”.
In the case of `Cn1cc(-c2ccc3c(c2)CCN3C(=O)Cc2cccc(C(F)(F)F)c2)c2c(N)ncnc21` [GSK2606414], the “viability, AgNPs alone vs in combination with the PERKi” value (MDA-MB-231; MDA-MB-231, 48 h) is reported as “no significant difference in viability” and the “p-eIF2α expression, co-treatment with thapsigargin vs thapsigargin alone” value ([1]; MDA-MB-231, 25 nM PERKi + 1 μM thapsigargin) is reported as “decreased p-eIF2α expression”.
With `CNc1ccc([N+](=O)[O-])c(Nc2ccc3[nH]ncc3c2)n1` [KRIBB11] the “combination treatment with AgNPs (combination index)” value (BT-549; BT549, AgNPs + HSF1 inhibitor) was “synergistic response”, the “combination treatment with AgNPs (combination index)” value (BT-549; BT549, AgNPs + HSP90 inhibitor) was “additive response” and the “sensitivity to AgNPs versus HSF1 inhibition (dose reduction index)” value (BT-549; BT549, single agents) was “equally sensitive”. For the same compound, the “combination treatment with AgNPs (combination index)” value (BT-20; BT20, AgNPs + HSF1 inhibitor) was “synergistic response” and the “sensitivity to AgNPs versus HSF1 inhibition (dose reduction index)” value (BT-20; BT20, single agents) was “marginally more sensitive to AgNPs”.
In the case of `CC(=O)N[C@@H](CS)C(=O)O` [NAC, N-acetylcysteine], the “effect of NAC pre-treatment on AgNP cytotoxicity” value (BT-549; BT-549, 4 mM NAC 6 h before 48 h AgNP, Ag 62.5-125 μg/ml) is reported as “significantly decreased cytotoxicity”, the “basal ROS after NAC treatment” value [2] is reported as “partially mitigate some of the basal ROS” and the “effect of NAC pre-treatment on AgNP cytotoxicity” value (MDA-MB-231; MDA-MB-231, 4 mM NAC 6 h before 48 h AgNP, Ag 15.625-62.5 μg/ml) is reported as “significantly decreased cytotoxicity”.
With `C/C=C(/C)C(=O)O[C@H]1C(C)=C2[C@H]([C@@H]1OC(=O)CCCCCCC)[C@@](C)(OC(C)=O)C[C@H](OC(=O)CCC)[C@@]1(O)[C@H]2OC(=O)[C@@]1(C)O` [thapsigargin, Thapsigargin] the “phosphorylation of eIF2α (p-eIF2α)” value ([1]; MDA-MB-231, 1 μM) was “increase in phosphorylation of the downstream effector, eIF2α”.
